According to patent publication US5082926A, “Polypeptide with type IV collagen cell adhesion, spreading and motility activity” (Regents of the University of Minnesota, priority 1989, dated 1992):
Residues, ends and D or L forms follow the SMILES beside them.

Columns and labels:
[1] = test system: K 1735 M4 melanoma cells; test: Melanoma cell adhesion and spreading on peptide-coated Immulon 1 wells; format: cell-based, mouse; details: K1735 M4 melanoma; surface coated at 100 μg/ml; average of three experiments
Protocol: Subconfluent cultures of M4 melanoma cells were radiolabeled overnight with 2 μCi/ml ^3 H-thymidine. […] The melanoma cells were then washed and resuspended to a final concentration of 3-4×10^4 cells/ml in DME supplemented with 20 mM Hepes and 10 mg/ml BSA. The cells remained viable (>95%) after this procedure, based upon exclusion of trypan blue dye.
(§1) Immulon 1 microtiter plates were prepared by drying down 100 μl/well of IV-H1 peptide which had been diluted to various concentrations (1-500 μg/ml) in Voller's carbonate buffer. The ability of the IV-H1 peptide to bind the plates was determined using radioiodinated peptides (described previously) in order to be certain that any differences in cell adhesion (or spreading) were not due to differential binding to surfaces. Nonspecific cell adhesion to sites on the plastic was blocked by the use of a 10 mg/ml solution of BSA in Voller's carbonate buffer at 37° C. for 1 hr. […] Adhesion was quantitated after washing to remove nonadherent and weakly adherent cells, by solubilizing the cells with 150 μl/well of 0.5N NaOH containing 1% SDS. Bound radioactivity was quantitated in a Beckman LS 3801 liquid scintillation counter. […] Each experiment was repeated a minimum of three times, and within a given experiment, each experimental point was determined in triplicate.

[2] = test system: Bovine aortic endothelial cells; test: Cell adhesion and spreading on coated peptide IV-H1 or type IV collagen; format: cell-based; details: surface coated at 100 μg/ml
Protocol: (§2) To characterize peptide IV-H1, the interaction of the peptide with other cell lines was investigated. These cell lines include the highly metastatic human melanoma cell line A375 M (also provided by Dr. Fidler), which was maintained in MEM with added vitamins and 10% FBS; and the fibrosarcoma cell line UV2237 MM, which was maintained in DME with 10% FBS. […]
as §1, with “surfaces.” for “surfaces. Nonspecific cell adhesion to sites on the plastic was blocked by the use of a 10 mg/ml solution of BSA in Voller's carbonate buffer at 37° C. for 1 hr.”, “triplicate. […]” for “triplicate.”

[3] = test system: A375 M melanoma; test: as above; format: cell-based, human; details: surface coated at 100 μg/ml
Protocol: as §2
as §1, with “surfaces.” for “surfaces. Nonspecific cell adhesion to sites on the plastic was blocked by the use of a 10 mg/ml solution of BSA in Voller's carbonate buffer at 37° C. for 1 hr.”, “triplicate. […]” for “triplicate.”

[4] = test system: Squamous carcinoma cell line (SCC9); test: as above; format: cell-based, human; details: surface coated at 100 μg/ml
Protocol: as §2
as §1, with “surfaces.” for “surfaces. Nonspecific cell adhesion to sites on the plastic was blocked by the use of a 10 mg/ml solution of BSA in Voller's carbonate buffer at 37° C. for 1 hr.”, “triplicate. […]” for “triplicate.”

[5] = test system: UV 2237 fibrosarcoma; test: as above; format: cell-based, murine; details: surface coated at 100 μg/ml
Protocol: as §2
as §1, with “surfaces.” for “surfaces. Nonspecific cell adhesion to sites on the plastic was blocked by the use of a 10 mg/ml solution of BSA in Voller's carbonate buffer at 37° C. for 1 hr.”, “triplicate. […]” for “triplicate.”

[6] = test system: B104 neuroblastoma; test: as above; format: cell-based, rat; details: surface coated at 100 μg/ml
Description: (§3) To characterize peptide IV-H1, the interaction of the peptide with other cell lines was investigated. These cell lines include the highly metastatic human melanoma cell line A375 M (also provided by Dr. Fidler), which was maintained in MEM with added vitamins and 10% FBS; and the fibrosarcoma cell line UV2237 MM, which was maintained in DME with 10% FBS. Other cell lines studied included: the C6 rat glioma cell line (ATCC, #CCL107), which was maintained in DME plus 10% CS; the SCC9 human squamous carcinoma cell line (ATCC, #CRL1629), which was maintained in a 1:1 solution of DME and HAM F12 containing 10% FBS; the B65 and B104 murine neuroblastoma cell lines which were obtained from Dr. David Schubert at the Salk Institute (Schuber et al., Nature, 249, 224-227 (1974)) and maintained in F12H media with supplements; and bovine aortic endothelial cells, which were isolated and maintained as described by Herbst et al., J. Cell Biol., 106, 1365-1373 (1988), the disclosure of which is incorporated by reference herein.
as §1, with “triplicate. […]” for “triplicate.”

[7] = test system: B65 neuroblastoma; test: as above; format: cell-based, rat; details: surface coated at 100 μg/ml
Description: as §3
as §1, with “triplicate. […]” for “triplicate.”

[8] = test system: C6 glioma; test: as above; format: cell-based, rat; details: surface coated at 100 μg/ml
Description: as §3
as §1, with “triplicate. […]” for “triplicate.”

[9] = test system: M4 melanoma cells; test: Melanoma cell motility in microchemotaxis chambers on coated filters; format: cell-based, mouse; details: 10 μg/ml solution
Protocol: In light of the involvement of cell adhesion and spreading in motility, peptide IV-H1 was studied for its ability to directly promote melanoma cell motility. Peptide-mediated M4 melanoma cell motility was examined in 48-well microchemotaxis chambers (Neuroprobe, Bethesda, MD) equipped with 8 μm pore size polyvinylpyrrolidone-free polycarbonate filters by a modification of a procedure described by Herbst et al., supra. Briefly, peptides were diluted in Voller's carbonate buffer and added in triplicate 50 μl aliquots to the lower wells of the chambers. The chambers were assembled with the filters in place and incubated overnight at 37° C. to allow the peptides to adsorb to the lower surfaces of the filters. The filters were then washed and transferred to fresh chambers which contained only media (DME containing 20 mM Hepes, pH 7.4). Cells were then added to the upper wells at 20,000/well in DME/Hepes media and incubated for 6 hr. at 37° C. in a humidified CO2 chamber. Filters were then washed, fixed and stained, and the number of cells which had migrated through the filters was quantitated using an Optomax Image Analysis System as described in Herbst et al., supra. Each experiment was repeated a minimum of three times. […] This compares with melanoma cell motility of 10-fold background levels in response to a 10 μg/ml solution of intact type IV collagen (FIG. 4b).

[10] = test system: M4 melanoma cells; details: 50 μg/ml
Protocol: The collagen coating concentration (5 μg/ml) was chosen based on the concentration which yielded half-maximal levels of cellular motility. The inhibitory effect of the peptides on cell motility was determined by preincubating the cells with increasing concentrations of the peptides for 20 min. prior to the assay to allow for binding to cell surface receptors. Cells in the continued presence of peptides were then added to the upper wells of chambers containing the protein-coated filters.

Compound	% AD (percent of input cells which adhered) [1]	% AD (percent of input cells which adhered) [2]	% AD (percent of input cells which adhered) [3]	% AD (percent of input cells which adhered) [4]	% AD (percent of input cells which adhered) [5]	% AD (percent of input cells which adhered) [6]	% AD (percent of input cells which adhered) [7]	% AD (percent of input cells which adhered) [8]	melanoma cell motility [9]	maximal inhibition of type IV collagen-mediated cell motility [10]
Type IV Collagen: Type IV collagen extracted from the Englebreth Holm Swarm sarcoma grown in lathyritic mice	61.9%	52.7%	50.3%	39.6%	7.9%	18.6%	7.7%	100.0%	10 -fold background levels	–
CC(C)[C@H](NC(=O)CN)C(=O)N[C@@H](CCCCN)C(=O)NCC(=O)N[C@@H](CC(=O)O)C(=O)N[C@@H](CCCCN)C(=O)NCC(=O)N[C@@H](CC(N)=O)C(=O)N1CCC[C@H]1C(=O)NCC(=O)N[C@@H](Cc1c[nH]c2ccccc12)C(=O)N1CCC[C@H]1C(=O)NCC(=O)N[C@@H](C)C(=O)N1CCC[C@H]1C(=O)O [peptide IV-H1, GVKGDKGNPGWPGAP] (H-GVKGDKGNPGWPGAP-OH)	–	–	–	–	–	–	–	–	–	80%
